How the values were obtained:
cocklebur = test: Test B pre-/postemergence herbicide test; assay type: in vivo, Xanthium strumarium
Method in brief: (§1)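 Flooded paddy rice and barnyardgrass were treated at the 2-leaf stage; upland plantings received compound either on sown seed or on 1- to 4-leaf seedlings. All were kept 13–15 days in a greenhouse and scored visually, 0–100, relative to untreated plants.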

velvetleaf = test: Test B pre-/postemergence herbicide test; assay type: in vivo, Abutilon theophrasti
Method in brief: (§2)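 Formulation: non-phytotoxic solvent mix with surfactant. Timing: preemergence on seed and postemergence on 2–18 cm plants, applied concurrently. Readout after 13–15 d greenhouse: visual 0–100 control rating against controls.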

giant foxtail = test: Test B pre-/postemergence herbicide test; assay type: in vivo, Setaria faberi
Method in brief: as §2

corn = test: Test B pre-/postemergence herbicide test; assay type: in vivo, Zea mays
Method in brief: as §2

wild oat = test: Test B postemergence herbicide test; assay type: in vivo, Avena fatua
Method in brief: (§3)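 Visual ratings, 0 (no effect) to 100 (complete control), made versus controls after 13–15 d greenhouse. Paddy plants treated at 2-leaf stage; postemergence plants at 1- to 4-leaf stage, 2–18 cm tall.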

barnyardgrass [1] = test: Test B pre-/postemergence herbicide test; assay type: in vivo, Echinochloa crus-galli
Method in brief: as §1

[2] = tested on: small flower umbrella sedge; test: Test B flooded paddy test; assay type: in vivo, Cyperus difformis; settings: 1000 g ai/ha, scale 0 to 100 (0 no effect, 100 complete control)
Method in brief: (§4)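 After treating 2-leaf paddy plants or 2–18 cm postemergence plants (1 to 4 leaves) with formulated chemical, researchers kept them in a greenhouse for 13–15 days. Effects were judged visually versus controls: 0 indicates none, 100 total control.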

barnyardgrass [3] = test: Test B flooded paddy test; assay type: in vivo, Echinochloa crus-galli; settings: 1000 g ai/ha, scale 0 to 100 (0 no effect, 100 complete control)
Method in brief: as §4

rice = test: Test B flooded paddy test; assay type: in vivo, Oryza sativa; settings: 1000 g ai/ha, scale 0 to 100 (0 no effect, 100 complete control)
Method in brief: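 Scale 0–100: zero equals no visible effect, 100 complete control, judged by eye relative to controls. Timing: 13 to 15 days in greenhouse post-treatment. Growth stage at spraying: two leaves (paddy) or one to four leaves, 2–18 cm (postemergence).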

ducksalad = test: Test B flooded paddy test; assay type: in vivo, Heteranthera limosa; settings: 1000 g ai/ha, scale 0 to 100 (0 no effect, 100 complete control)
Method in brief: as §4

pigweed = test: Test B pre-/postemergence herbicide test; assay type: in vivo, Amaranthus retroflexus
Method in brief: as §2

morningglory = test: Test B pre-/postemergence herbicide test; assay type: in vivo, Ipomoea coccinea
Method in brief: as §1

large crabgrass = test: Test B pre-/postemergence herbicide test; assay type: in vivo, Digitaria sanguinalis
Method in brief: as §2

wheat = test: Test B postemergence herbicide test; assay type: in vivo, Triticum aestivum; set-up: key to Wheat plant response rating: 0 = no effect, 100 = complete control
Method in brief: as §3

lambsquarters = test: Test B pre-/postemergence herbicide test; assay type: in vivo, Chenopodium album
Method in brief: as §2

Surinam grass = test: Test B pre-/postemergence herbicide test; assay type: in vivo, Urochloa decumbens
Method in brief: as §2

blackgrass = test: Test B postemergence herbicide test; assay type: in vivo, Alopecurus myosuroides
Method in brief: as §4

[4] = 125 g ai/ha; 0 is no effect, 100 is complete control; preemergence
[5] = 125 g ai/ha; visual rating, scale 0 (no effect) to 100 (complete control); postemergence
[6] = postemergence, 500 g ai/ha; scale 0 to 100, 0 is no effect, 100 is complete control
[7] = 500 g ai/ha; visual rating 0-100, 0 no effect, 100 complete control; preemergence
[8] = Postemergence, 500 g ai/ha; visual rating after 13 to 15 days, scale 0 (no effect) to 100 (complete control)
[9] = postemergence, 125 g ai/ha; visual rating, scale 0 (no effect) to 100 (complete control)
[10] = preemergence, 125 g ai/ha; 0 to 100 scale, 0 is no effect, 100 is complete control
[11] = postemergence, 16 g ai/ha; scale 0 to 100
[12] = postemergence; 62 g ai/ha; scale 0 to 100

Q: Which results are given for `CCc1nn(C(C)(C)C)nc1C(=O)Nc1cccc(C(=O)N(C)C)c1` [Compound 364]?
A: Plant response rating (0 to 100 scale), Cocklebur (cocklebur; [4]): 70; Cocklebur plant response rating (cocklebur; [5]): 40; Cocklebur plant response rating (cocklebur; [6]): 50; Plant response rating (0 to 100 scale), Velvetleaf (velvetleaf; [4]): 100; Velvetleaf plant response rating (velvetleaf; [5]): 20; Plant response rating (0 to 100 scale), Foxtail, Giant (giant foxtail; [4]): 100; Foxtail, Giant plant response rating (giant foxtail; [5]): 10; Foxtail, Giant plant response rating (giant foxtail; [6]): 50; Plant response rating (0 to 100 scale), Corn (corn; [4]): 80; Corn plant response rating (corn; [5]): 10; Corn plant response rating (corn; [6]): 40; Oat, Wild plant response rating (wild oat; [5]): 20; Plant response rating (0 to 100 scale), Barnyardgrass (barnyardgrass [1]; [4]): 100; Barnyardgrass plant response rating (barnyardgrass [1]; [5]): 10; Barnyardgrass plant response rating (barnyardgrass [1]; [6]): 70; Sedge, Umbrella plant response rating [2]: 100; Barnyardgrass plant response rating (barnyardgrass [3]): 90; Rice plant response rating (rice): 90; Ducksalad plant response rating (ducksalad): 100; Plant response rating (0 to 100 scale), Pigweed (pigweed; [4]): 100; Pigweed plant response rating (pigweed; [5]): 40; Plant response rating (0 to 100 scale), Morningglory (morningglory; [4]): 70; Morningglory plant response rating (morningglory; [5]): 20; Plant response rating (0 to 100 scale), Crabgrass, Large (large crabgrass; [4]): 100; Crabgrass, Large plant response rating (large crabgrass; [5]): 30; Crabgrass, Large plant response rating (large crabgrass; [6]): 70; Wheat plant response rating (wheat; 125 g ai/ha, visual rating, scale 0 (no effect) to 100 (complete control), postemergence): 10; Wheat plant response rating (wheat; 500 g ai/ha, scale 0 to 100, 0 no effect, 100 complete control, preemergence): 100; Plant response rating (0 to 100 scale), Lambsquarters (lambsquarters; [4]): 100; Lambsquarters plant response rating (lambsquarters; [5]): 70; Plant response rating (0 to 100 scale), Surinam Grass (Surinam grass; [4]): 100; Surinam Grass plant response rating (Surinam grass; [5]): 30; Blackgrass plant response rating (blackgrass; [5]): 30; Blackgrass plant response rating (blackgrass; [6]): 80

Q: What does the source list for `CCCn1nc(C(C)(C)C)cc1C(=O)Nc1cccc(C(C)=NO)c1` [Compound 113]?
A: Plant response rating, Cocklebur (cocklebur; [7]): 20; Plant response rating, Cocklebur (cocklebur; [8]): 100; Cocklebur plant response rating (cocklebur; [9]): 100; Plant response rating, Cocklebur (cocklebur; [10]): 0; Plant response rating, Velvetleaf (velvetleaf; [7]): 20; Plant response rating, Velvetleaf (velvetleaf; [8]): 60; Velvetleaf plant response rating (velvetleaf; [9]): 20; Plant response rating, Velvetleaf (velvetleaf; [10]): 20; Plant response rating, Foxtail, Giant (giant foxtail; [7]): 30; Plant response rating, Foxtail, Giant (giant foxtail; [8]): 40; Foxtail, Giant plant response rating (giant foxtail; [9]): 30; Plant response rating, Foxtail, Giant (giant foxtail; [10]): 10; Plant response rating, Corn (corn; [7]): 0; Plant response rating, Corn (corn; [8]): 30; Corn plant response rating (corn; [9]): 30; Plant response rating, Corn (corn; [10]): 0; Plant response rating, Oat, Wild (wild oat; [8]): 60; Oat, Wild plant response rating (wild oat; [9]): 40; Plant response rating, Barnyardgrass (barnyardgrass [1]; [7]): 90; Plant response rating, Barnyardgrass (barnyardgrass [1]; [8]): 80; Barnyardgrass plant response rating (barnyardgrass [1]; [9]): 30; Plant response rating, Barnyardgrass (barnyardgrass [1]; [10]): 60; Sedge, Umbrella plant response rating ([2]; visual rating, 13 to 15 days): 90; Barnyardgrass plant response rating (barnyardgrass [3]; visual rating, 13 to 15 days): 70; Rice plant response rating (rice; visual rating, 13 to 15 days): 60; Ducksalad plant response rating (ducksalad; visual rating, 13 to 15 days): 90; Plant response rating, Pigweed (pigweed; [7]): 100; Plant response rating, Pigweed (pigweed; [8]): 100; Pigweed plant response rating (pigweed; [9]): 90; Plant response rating, Pigweed (pigweed; [10]): 0; Plant response rating, Morningglory (morningglory; [7]): 50; Plant response rating, Morningglory (morningglory; [8]): 100; Morningglory plant response rating (morningglory; [9]): 20; Plant response rating, Morningglory (morningglory; [10]): 0; Plant response rating, Crabgrass, Large (large crabgrass; [7]): 100; Plant response rating, Crabgrass, Large (large crabgrass; [8]): 80; Crabgrass, Large plant response rating (large crabgrass; [9]): 30; Plant response rating, Crabgrass, Large (large crabgrass; [10]): 100; Plant response rating, Wheat (wheat; Postemergence, 500 g ai/ha, visual rating after 13 to 15 days, scale 0 (no effect) to 100 (complete control)): 30; Wheat plant response rating (wheat; postemergence, 125 g ai/ha, visual rating, scale 0 (no effect) to 100 (complete control)): 10; Plant response rating, Lambsquarters (lambsquarters; [7]): 100; Plant response rating, Lambsquarters (lambsquarters; [8]): 100; Lambsquarters plant response rating (lambsquarters; [9]): 90; Plant response rating, Lambsquarters (lambsquarters; [10]): 80; Plant response rating, Surinam Grass (Surinam grass; [7]): 10; Plant response rating, Surinam Grass (Surinam grass; [8]): 60; Surinam Grass plant response rating (Surinam grass; [9]): 40; Plant response rating, Surinam Grass (Surinam grass; [10]): 10; Plant response rating, Blackgrass (blackgrass; [8]): 20; Blackgrass plant response rating (blackgrass; [9]): 10

Q: For `CCn1nc(C(C)(C)C)cc1C(=O)Nc1cc(C(=O)NC)c(F)cc1F` [Compound 251], which “Cocklebur plant response rating” value (cocklebur; [11]) is on record?
A: The value was 0.

Q: And the “Cocklebur plant response rating” value (cocklebur; [12])?
A: The value was 0.

Q: And the “Velvetleaf plant response rating” value (velvetleaf; [11])?
A: The value was 0.

Q: And the “Velvetleaf plant response rating” value (velvetleaf; [12])?
A: Its value is 10.

Q: And the “Foxtail, Giant plant response rating” value (giant foxtail; [11])?
A: Its value is 0.

Q: And the “Foxtail, Giant plant response rating” value (giant foxtail; [12])?
A: The value was 0.

Q: What about the “Corn plant response rating” value (corn; [11]) of the same compound?
A: The value was 0.

Q: What about the “Corn plant response rating” value (corn; [12]) of the same compound?
A: The value was 0.

Q: What about the “Oat, Wild plant response rating” value (wild oat; [11]) of the same compound?
A: Its value is 20.

Q: And the “Oat, Wild plant response rating” value (wild oat; [12])?
A: The value was 20.

Q: What about the “Barnyardgrass plant response rating” value (barnyardgrass [1]; [11]) of the same compound?
A: The value was 0.

Q: What about the “Barnyardgrass plant response rating” value (barnyardgrass [1]; [12]) of the same compound?
A: Its value is 0.

Q: What about the “Sedge, Umbrella plant response rating” value [2] of the same compound?
A: Its value is 40.

Q: What about the “Barnyardgrass plant response rating” value (barnyardgrass [3]) of the same compound?
A: Its value is 0.

Q: What about the “Rice plant response rating” value (rice) of the same compound?
A: The value was 40.

Q: What about the “Ducksalad plant response rating” value (ducksalad) of the same compound?
A: Its value is 30.

Q: And the “Pigweed plant response rating” value (pigweed; [11])?
A: The value was 0.

Q: What about the “Pigweed plant response rating” value (pigweed; [12]) of the same compound?
A: Its value is 10.

Q: What about the “Morningglory plant response rating” value (morningglory; [11]) of the same compound?
A: Its value is 0.

Q: And the “Morningglory plant response rating” value (morningglory; [12])?
A: Its value is 0.

Q: What about the “Crabgrass, Large plant response rating” value (large crabgrass; [11]) of the same compound?
A: Its value is 0.

Q: And the “Crabgrass, Large plant response rating” value (large crabgrass; [12])?
A: Its value is 0.

Q: And the “Wheat plant response rating” value (wheat; postemergence, 16 g ai/ha, scale 0 to 100)?
A: The value was 20.

Q: What about the “Wheat plant response rating” value (wheat; postemergence, 62 g ai/ha, scale 0 to 100) of the same compound?
A: Its value is 20.

Q: And the “Lambsquarters plant response rating” value (lambsquarters; [11])?
A: Its value is 0.

Q: What about the “Lambsquarters plant response rating” value (lambsquarters; [12]) of the same compound?
A: Its value is 10.

Q: And the “Surinam Grass plant response rating” value (Surinam grass; [11])?
A: Its value is 0.

Q: And the “Surinam Grass plant response rating” value (Surinam grass; [12])?
A: Its value is 0.

Q: And the “Blackgrass plant response rating” value (blackgrass; [11])?
A: The value was 10.

Q: What about the “Blackgrass plant response rating” value (blackgrass; [12]) of the same compound?
A: Its value is 50.
